# According to US7138361B2, “Herbicidal heterocycles” (E. I. du Pont de Nemours and Company, priority 2000, dated 2006):
# Assays:
# Assay in all cases: Test C preemergence
# Type in all cases: in vivo
# Nightshade = test system: Nightshade
# Sunflower [1] = test system: Sunflower
# [2] = test system: Surinam grass (Brachiaria decumbens); details: for Plant response rating (0 to 100), Surinam grass: Rate 250 g/ha, visual evaluation after 12 to 14 days
# In short: (§1)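 Herbicidal effect is a visual 0–100 score (100 = complete control) assigned versus untreated plants, 12 to 14 days after spraying in the greenhouse. Test compounds were applied in a non-phytotoxic, surfactant-containing solvent.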
# [3] = test system: bermudagrass (Cynodon dactylon); details: for Plant response rating (0 to 100 where 0 is no effect and 100 is complete control), Bermudagrass: Rate 250 g/ha, visual evaluation after 12 to 14 days
# In short: as §1
# [4] = test system: cocklebur (Xanthium strumarium)
# In short: as §1
# [5] = test system: common ragweed (Ambrosia elatior); details: for Plant response rating (0 to 100), Ragweed, Common: Rate 250 g/ha, visual evaluation after 12 to 14 days
# In short: as §1
# corn (Zea mays) = details: for Plant response rating (0 to 100), Corn: Rate 250 g/ha, visual evaluation after 12 to 14 days
# In short: as §1
# [6] = test system: crabgrass (Digitaria sanguinalis); details: for Plant response rating (0 to 100), Crabgrass: Rate 250 g/ha, visual evaluation after 12 to 14 days
# In short: as §1
# [7] = test system: giant foxtail (Setaria faberii); details: for Plant response rating (0 to 100), Foxtail, Giant: Rate 250 g/ha, visual evaluation after 12 to 14 days
# In short: as §1
# [8] = test system: goosegrass (Eleusine indica); details: for Plant response rating (0 to 100), Goosegrass: Rate 250 g/ha, visual evaluation after 12 to 14 days
# In short: as §1
# [9] = test system: johnsongrass (Sorghum halepense); details: for Plant response rating (0 to 100), Johnsongrass: Rate 250 g/ha, visual evaluation after 12 to 14 days
# In short: as §1
# kochia (Kochia scoparia) = details: for Plant response rating (0 to 100), Kochia: Rate 250 g/ha, visual evaluation after 12 to 14 days
# In short: as §1
# [10] = test system: lambsquarters (Chenopodium album); details: for Plant response rating (0 to 100), Lambsquarters: Rate 250 g/ha, visual evaluation after 12 to 14 days
# In short: as §1
# [11] = test system: morningglory (Ipomoea hederacea); details: for Plant response rating (0 to 100), Morningglory: Rate 250 g/ha, visual evaluation after 12 to 14 days
# In short: as §1
# [12] = test system: pigweed (Amaranthus retroflexus); details: for Plant response rating (0 to 100), Pigweed: Rate 250 g/ha, visual evaluation after 12 to 14 days
# In short: as §1
# soybean (Glycine max) = details: for Plant response rating (0 to 100), Soybean: Rate 250 g/ha, visual evaluation after 12 to 14 days
# In short: as §1
# [13] = test system: velvetleaf (Abutilon theophrasti); details: for Plant response rating (0 to 100), Velvetleaf: Rate 250 g/ha, visual evaluation after 12 to 14 days
# In short: as §1
# [14] = test system: woolly cupgrass (Eriochloa villosa); details: for Plant response rating (0 to 100), Cupgrass, Woolly: Rate 250 g/ha, visual evaluation after 12 to 14 days
# In short: as §1
# [15] = test system: yellow nutsedge (Cyperus esculentus); details: for Plant response rating (0 to 100), Nutsedge: Rate 250 g/ha, visual evaluation after 12 to 14 days
# In short: as §1
# Sunflower [16] = details: Rate 125 g/ha, scale 0 to 100, 0 no effect, 100 complete control
# [17] = Rate 62 g/ha, scale 0 to 100, 0 no effect, 100 complete control
# [18] = Rate 125 g/ha, scale 0 to 100, 0 no effect, 100 complete control
# [19] = Preemergence, Rate 500 g/ha, scale 0 to 100
# [20] = preemergence, Rate 125 g/ha, scale 0 to 100, 0 no effect, 100 complete control
smiles,measurement,setting,value
O=C1C(n2ccc(C3CCC3)n2)OCN1c1cccc(C(F)(F)F)c1 (stereo not drawn) [Compound 39],"Plant response rating, Nightshade",Nightshade; [17],0
same,"Plant response rating, Nightshade",Nightshade; [18],0
same,"Plant response rating, Nightshade","Nightshade; Rate 500 g/ha, scale 0 to 100",0
same,"Plant response rating, Sunflower",Sunflower [1]; [17],0
same,"Plant response rating, Sunflower","Sunflower [1]; Rate 500 g/ha, scale 0 to 100",0
same,"Plant response rating, Surinam grass",[2]; [19],80
same,"Plant response rating, Surinam grass",[2]; [17],0
same,"Plant response rating (0 to 100), Surinam grass",[2]; preemergence,0
same,"Plant response rating, Surinam grass",[2]; [20],0
same,"Plant response rating, Bermudagrass",[3]; [19],100
same,"Plant response rating, Bermudagrass",[3]; [17],90
same,"Plant response rating (0 to 100 where 0 is no effect and 100 is complete control), Bermudagrass",[3]; preemergence,100
same,"Plant response rating, Bermudagrass",[3]; [20],90
same,"Plant response rating, Cocklebur",[4]; [19],0
same,"Plant response rating, Cocklebur",[4]; [17],0
same,"Plant response rating, Ragweed, Common",[5]; [19],20
same,"Plant response rating, Ragweed, Common",[5]; [17],0
same,"Plant response rating (0 to 100), Ragweed, Common",[5]; preemergence,0
same,"Plant response rating, Ragweed, Common",[5]; [20],0
same,"Plant response rating, Corn",corn (Zea mays); [19],70
same,"Plant response rating, Corn",corn (Zea mays); [17],0
same,"Plant response rating (0 to 100), Corn",corn (Zea mays); preemergence,0
same,"Plant response rating, Corn",corn (Zea mays); [20],0
same,"Plant response rating, Crabgrass",[6]; [19],100
same,"Plant response rating, Crabgrass",[6]; [17],90
same,"Plant response rating (0 to 100), Crabgrass",[6]; preemergence,100
same,"Plant response rating, Crabgrass",[6]; [20],100
same,"Plant response rating, Foxtail, Giant",[7]; [19],100
same,"Plant response rating, Foxtail, Giant",[7]; [17],0
same,"Plant response rating (0 to 100), Foxtail, Giant",[7]; preemergence,0
same,"Plant response rating, Foxtail, Giant",[7]; [20],0
same,"Plant response rating, Goosegrass",[8]; [19],100
same,"Plant response rating, Goosegrass",[8]; [17],80
same,"Plant response rating (0 to 100), Goosegrass",[8]; preemergence,100
same,"Plant response rating, Goosegrass",[8]; [20],90
same,"Plant response rating, Johnsongrass",[9]; [19],90
same,"Plant response rating, Johnsongrass",[9]; [17],0
same,"Plant response rating (0 to 100), Johnsongrass",[9]; preemergence,70
same,"Plant response rating, Johnsongrass",[9]; [20],0
same,"Plant response rating, Kochia",kochia (Kochia scoparia); [19],90
same,"Plant response rating, Kochia",kochia (Kochia scoparia); [17],0
same,"Plant response rating (0 to 100), Kochia",kochia (Kochia scoparia); preemergence,70
same,"Plant response rating, Kochia",kochia (Kochia scoparia); [20],50
same,"Plant response rating, Lambsquarters",[10]; [19],100
same,"Plant response rating, Lambsquarters",[10]; [17],100
same,"Plant response rating (0 to 100), Lambsquarters",[10]; preemergence,100
same,"Plant response rating, Lambsquarters",[10]; [20],100
same,"Plant response rating, Morningglory",[11]; [19],0
same,"Plant response rating, Morningglory",[11]; [17],0
same,"Plant response rating (0 to 100), Morningglory",[11]; preemergence,0
same,"Plant response rating, Morningglory",[11]; [20],0
same,"Plant response rating, Pigweed",[12]; [19],100
same,"Plant response rating, Pigweed",[12]; [17],0
same,"Plant response rating (0 to 100), Pigweed",[12]; preemergence,0
same,"Plant response rating, Pigweed",[12]; [20],0
same,"Plant response rating, Soybean",soybean (Glycine max); [19],0
same,"Plant response rating, Soybean",soybean (Glycine max); [17],0
same,"Plant response rating (0 to 100), Soybean",soybean (Glycine max); preemergence,0
same,"Plant response rating, Soybean",soybean (Glycine max); [20],0
same,"Plant response rating, Velvetleaf",[13]; [19],0
same,"Plant response rating, Velvetleaf",[13]; [17],0
same,"Plant response rating (0 to 100), Velvetleaf",[13]; preemergence,0
same,"Plant response rating, Velvetleaf",[13]; [20],0
same,"Plant response rating, Cupgrass, Woolly",[14]; [19],100
same,"Plant response rating, Cupgrass, Woolly",[14]; [17],0
same,"Plant response rating (0 to 100), Cupgrass, Woolly",[14]; preemergence,90
same,"Plant response rating, Cupgrass, Woolly",[14]; [20],20
same,"Plant response rating, Nutsedge",[15]; [19],40
same,"Plant response rating, Nutsedge",[15]; [17],0
same,"Plant response rating (0 to 100), Nutsedge",[15]; preemergence,0
same,"Plant response rating, Nutsedge",[15]; [20],0
same,"Plant response rating, Sunflower",Sunflower [16],0
CCC(C)c1ccn(C2SCN(c3cccc(OC(F)(F)F)c3)C2=O)n1 (stereo not drawn) [Compound 40],"Plant response rating, Nightshade",Nightshade; [17],0
same,"Plant response rating, Nightshade",Nightshade; [18],0
same,"Plant response rating, Nightshade","Nightshade; Rate 500 g/ha, scale 0 to 100",70
same,"Plant response rating, Sunflower",Sunflower [1]; [17],0
same,"Plant response rating, Sunflower","Sunflower [1]; Rate 500 g/ha, scale 0 to 100",40
same,"Plant response rating, Surinam grass",[2]; [19],100
same,"Plant response rating, Surinam grass",[2]; [17],0
same,"Plant response rating (0 to 100), Surinam grass",[2]; preemergence,90
same,"Plant response rating, Surinam grass",[2]; [20],80
same,"Plant response rating, Bermudagrass",[3]; [19],100
same,"Plant response rating, Bermudagrass",[3]; [17],80
same,"Plant response rating (0 to 100 where 0 is no effect and 100 is complete control), Bermudagrass",[3]; preemergence,100
same,"Plant response rating, Bermudagrass",[3]; [20],100
same,"Plant response rating, Cocklebur",[4]; [19],60
same,"Plant response rating, Cocklebur",[4]; [17],20
same,"Plant response rating, Cocklebur",[4]; [20],20
same,"Plant response rating, Ragweed, Common",[5]; [19],70
same,"Plant response rating, Ragweed, Common",[5]; [17],0
same,"Plant response rating (0 to 100), Ragweed, Common",[5]; preemergence,30
same,"Plant response rating, Ragweed, Common",[5]; [20],0
same,"Plant response rating, Corn",corn (Zea mays); [19],90
same,"Plant response rating, Corn",corn (Zea mays); [17],0
same,"Plant response rating (0 to 100), Corn",corn (Zea mays); preemergence,50
same,"Plant response rating, Corn",corn (Zea mays); [20],20
same,"Plant response rating, Crabgrass",[6]; [19],100
same,"Plant response rating, Crabgrass",[6]; [17],100
same,"Plant response rating (0 to 100), Crabgrass",[6]; preemergence,100
same,"Plant response rating, Crabgrass",[6]; [20],100
same,"Plant response rating, Foxtail, Giant",[7]; [19],100
same,"Plant response rating, Foxtail, Giant",[7]; [17],90
same,"Plant response rating (0 to 100), Foxtail, Giant",[7]; preemergence,100
same,"Plant response rating, Foxtail, Giant",[7]; [20],0
same,"Plant response rating, Goosegrass",[8]; [19],100
same,"Plant response rating, Goosegrass",[8]; [17],90
same,"Plant response rating (0 to 100), Goosegrass",[8]; preemergence,100
same,"Plant response rating, Goosegrass",[8]; [20],100
same,"Plant response rating, Johnsongrass",[9]; [19],100
same,"Plant response rating, Johnsongrass",[9]; [17],50
same,"Plant response rating (0 to 100), Johnsongrass",[9]; preemergence,100
same,"Plant response rating, Johnsongrass",[9]; [20],100
same,"Plant response rating, Kochia",kochia (Kochia scoparia); [19],100
same,"Plant response rating, Kochia",kochia (Kochia scoparia); [17],60
same,"Plant response rating (0 to 100), Kochia",kochia (Kochia scoparia); preemergence,100
same,"Plant response rating, Kochia",kochia (Kochia scoparia); [20],90
same,"Plant response rating, Lambsquarters",[10]; [19],100
same,"Plant response rating, Lambsquarters",[10]; [17],100
same,"Plant response rating (0 to 100), Lambsquarters",[10]; preemergence,100
same,"Plant response rating, Lambsquarters",[10]; [20],100
same,"Plant response rating, Morningglory",[11]; [19],0
same,"Plant response rating, Morningglory",[11]; [17],0
same,"Plant response rating (0 to 100), Morningglory",[11]; preemergence,0
same,"Plant response rating, Morningglory",[11]; [20],0
same,"Plant response rating, Pigweed",[12]; [19],100
same,"Plant response rating, Pigweed",[12]; [17],0
same,"Plant response rating (0 to 100), Pigweed",[12]; preemergence,0
same,"Plant response rating, Pigweed",[12]; [20],100
same,"Plant response rating, Soybean",soybean (Glycine max); [19],40
same,"Plant response rating (0 to 100), Soybean",soybean (Glycine max); preemergence,40
same,"Plant response rating, Soybean",soybean (Glycine max); [20],20
same,"Plant response rating, Velvetleaf",[13]; [19],50
same,"Plant response rating, Velvetleaf",[13]; [17],0
same,"Plant response rating (0 to 100), Velvetleaf",[13]; preemergence,30
same,"Plant response rating, Velvetleaf",[13]; [20],0
same,"Plant response rating, Cupgrass, Woolly",[14]; [19],100
same,"Plant response rating, Cupgrass, Woolly",[14]; [17],60
same,"Plant response rating (0 to 100), Cupgrass, Woolly",[14]; preemergence,90
same,"Plant response rating, Cupgrass, Woolly",[14]; [20],90
same,"Plant response rating, Nutsedge",[15]; [19],60
same,"Plant response rating, Nutsedge",[15]; [17],0
same,"Plant response rating (0 to 100), Nutsedge",[15]; preemergence,50
same,"Plant response rating, Nutsedge",[15]; [20],0
same,"Plant response rating, Sunflower",Sunflower [16],0
